Source: ChEMBL document CHEMBL1133240, “Michael adducts of ascorbic acid as inhibitors of protein phosphatase 2A and inducers of apoptosis” (Bioorg Med Chem Lett, 2000)

Assays:
[1] = Compound was evaluated for inhibitory effect against casein dephosphorylation (casein is a substrate of PP-2A) by a HIT cell extract relative to cantharidic acid (100 uM); assay type: functional, cell-based, Homo sapiens
[2] = Lethal dose was evaluated in HIT 100R cells; assay type: toxicity, cell-based; conditions: human, read-out: LC50 (the source's name)
[3] = Lethal dose was evaluated in parental HIT cells; assay type: toxicity, cell-based; conditions: read-out: LC50 (the source's name)
HIT [4] = test: Inhibitory concentration against casein dephosphorylation (casein is a substrate of PP-2A) by a HIT cell extract; assay type: functional, cell-free; conditions: Homo sapiens
[5] = Compound was evaluated for inhibitory effect against casein dephosphorylation (casein is a substrate of PP-2A) by a HIT cell extract at 100 uM; assay type: functional; conditions: Homo sapiens
[6] = Compound was evaluated for inhibitory effect against casein dephosphorylation (casein is a substrate of PP-2A) by a HIT cell extract with Okadaic acid (225 nM) or Cantharidic acid (100 uM); assay type: functional, cell-based, Homo sapiens
HIT [7] = test: Compound was evaluated for inhibitory effect against casein dephosphorylation (casein is a substrate of PP-2A) by a HIT cell extract at 1000 uM; Some inhibition; assay type: functional, cell-based; conditions: Homo sapiens

O=C1O[C@@H]2[C@@H](O)CO[C@]2(O)[C@@]1(O)C(C[N+](=O)[O-])c1ccc(Cl)cc1 (some centres undefined)
IC50 [1]: 70 µM
CC50 [2]: 7.9 µM
CC50 [3]: 5.6 µM

C=C1[C@@H](O)[C@@H]2O[C@]3(CC[C@H](/C=C/[C@@H](C)[C@@H]4CC(C)=C[C@@]5(O[C@H](C[C@@](C)(O)C(=O)O)CC[C@H]5O)O4)O3)CC[C@H]2O[C@@H]1[C@@H](O)C[C@H](C)[C@H]1O[C@@]2(CCCCO2)CC[C@H]1C
Concentration (HIT [4]): 225 nM

CCCCCCCCCCCCCCCC(=O)OC[C@@H](O)[C@H]1OC(=O)[C@]2(O)CCC(O)O[C@]12OC (some centres undefined)
inhibition at 100 µM [5]: 40%
IC50 [6]: 175 µM
CC50 [2]: 126 µM
CC50 [3]: 100 µM

CCCCCCCCCCCCCCCC(=O)OC[C@@H](O)[C@H]1OC(=O)[C@]2(CCC(OC(C)C)O2)C1=O (some centres undefined)
inhibition (HIT [7]): Some inhibition
